Our source for the ring closure, yield of all isomers and IC50 values is patent US20220153741A1, “HETEROCYCLIC COMPOUNDS AS INHIBITORS OF KRAS G12C” (Guangdong Newopp Biopharmaceuticals Co., Ltd., priority 2019, published 2022).

For series [1] the following is noted: amide bond.
Series [2] has as its system LS513 (KRAS G12D) cancer cell line. In words: 3D proliferation assay, LS513 (CellTiter-Glo). It is filed as cell-based. The conditions noted are these: 96-well spheroid plate, 4 days. On the procedure:
(§1) 3D proliferation assay: NCI-H358 (H358, KRAS G12C) and LS513 (KRAS G12D) cancer cell lines were obtained from ATCC (American Type Culture Collection, VA). Cells were plated in 96-well spheroid plate (CORNING INC, NY)) in RPMI-1640 with 10% FBS. Compounds (11-point dilutions) and DMSO were added to the wells and incubated with cells for 4 days at 37° C. Cell viability was then determined by CellTiter-Glo (Promega, WI). IC50 values of compounds were determined as the concentration of 50% inhibition of cell viability compared to DMSO treated cells (A: IC50<0.1 μM; B: IC50 between 0.1 μM and 1 μM; C: IC50 between 1 μM and 10 μM; D: >10 μM; ND: not determined).
In general terms: ATP-based viability assays read luminescence as a measure of living cells.

In series [3] the test system is NCI-H358 (H358, KRAS G12C) cancer cell line. Briefly: 3D proliferation assay, NCI-H358 (CellTiter-Glo). The conditions noted are these: 96-well spheroid plate, 4 days. It is filed as cell-based. As for the experimental part: as §1
The test system of series [4] is pERK1/2 in NCI-H358 cells. Briefly: Phospho-ERK (pERK) assay in NCI-H358 cells. It is filed as cell-based. The conditions noted are these: 3 hours compound treatment, pERK1/2 antibody fluorescence. As for the experimental part: Phospho-ERK (pERK) assay: NCI-H358 cells were seeded in 96-well plates (Greiner) in RPMI-1640 with 10% FBS 16 hours prior to compound treatment. Serial dilution of compounds was made and added to wells, and then incubated at 37° C. for 3 hours. After the treatment, cells were fixed with 3.7% formaldehyde (VWR) for 20 min at RT, followed by being permeabilized with ice-cold methanol at −20° C. for 20 min. The methanol was then dumped and replaced with Intercept® (PBS) Blocking Buffer (LiCOR) supplemented with 0.05% Tween-20 and incubated at RT for 1 hour with gentle rocking. The blocking buffer was then replaced with the blocking buffer containing pERK1/2 antibody (Cell Signaling) and incubated at 4° C. overnight with gentle rocking. The plate was washed 5 times with 1×PBS+0.1% Tween-20. The blocking buffer containing LiCOR IRDye 680RD secondary antibody (LiCOR,) was then added and incubated for 1 hour at RT with gentle rocking. After washing 5 times with 1×PBS+0.1% Tween-20, the plate was read using CLARIOstar plate reader (BMG LABTECH GmbH). IC50 values were determined as the concentration of 50% inhibition of the fluorescence signal compared to DMSO treated cells (A: IC50<0.1 μM; B: IC50 between 0.1 μM and 1 μM; C: IC50 between 1 μM and 10 μM; D: >10 μM; ND: not determined).

Where two headings read alike, the source gives them in different places.

In series [1] (from CC(C)c1cccc(NCC(=O)O)c1-n1c(=O)[nH]c(=O)c2cc(F)c(-c3c(N)cccc3F)nc21, TCFH/N-methylimidazole/pyridine, MeCN/DMF (1:1), 66.0 mM, 11.0 h), `CC(C)c1cccc2c1-n1c(=O)[nH]c(=O)c3cc(F)c(nc31)-c1c(F)cccc1NC(=O)CN2` returned a ring closure, yield of all isomers of 32.7%.

`CC(C)c1nccc2c1-n1c(=O)nc(O)c3cc(F)c(nc31)-c1c(F)cccc1NC(=O)CC2` yielded a ring closure, yield of all isomers in series [1] (from CC(C)c1nccc(CCC(=O)O)c1-n1c(=O)nc(O)c2cc(F)c(-c3c(N)cccc3F)nc21, TCFH/NMI, DMF, 37.0 mM, 25.0 °C, 1.0 h) of 46.7%.

Take `C=CC(=O)N1CCN(c2nc(=O)n3c4nc(c(F)cc24)-c2c(F)cccc2NCCCc2ccnc(C(C)C)c2-3)[C@@H](C)C1` (single isomer, unassigned) [Example 2A]: the IC50 (commonly the concentration that gives 50% inhibition) in series [2] was above 10000 nM; in series [3] it was below 100 nM; in series [4] (Homo sapiens, NCI-H358, 3 h) it was below 100 nM.

Regarding `C=CC(=O)N1CCN(c2nc(=O)n3c4nc(c(F)cc24)-c2c(F)cccc2NCCCc2ccnc(C(C)C)c2-3)[C@@H](C)C1` (single isomer, unassigned) [Example 2B], the IC50 was above 10000 nM in series [2], 100 to 1000 nM in series [3] and 100 to 1000 nM in series [4].

With `C=CC(=O)N1CCN(c2nc(=O)n3c4nc(c(F)cc24)-c2c(F)cccc2NC(=O)CCc2ccnc(C(C)C)c2-3)[C@@H](C)C1` [Example 1, (S)-2^4-(4-Acryloyl-2-methylpiperazin-1-yl)-2^6,3^6-difluoro-1^2-isopropyl-2^1,2^2-dihydro-4-aza-2(1,7)-pyrido[2,3-d]pyrimidina-1(3,4)-pyridina-3(1,2)-benzenacycloheptaphane-2^2,5-dione], the IC50 in series [2] (Homo sapiens, LS-513, 96 h) was above 10000 nM; in series [3] (Homo sapiens, NCI-H358, 96 h), below 100 nM; in series [4] (Homo sapiens, NCI-H358, 3 h), 100 to 1000 nM.

Turning to `C=CC(=O)N1CCN(c2nc(=O)n3c4nc(c(F)cc24)-c2c(F)cccc2N(C)CCCc2ccnc(C(C)C)c2-3)[C@@H](C)C1` [Example 4, (S)-2^4-(4-acryloyl-2-methylpiperazin-1-yl)-2^6,3^6-difluoro-1^2-isopropyl-4-methyl-2^1,2^2-dihydro-4-aza-2(1,7)-pyrido[2,3-d]pyrimidina-1(3,4)-pyridina-3(1,2)-benzenacycloheptaphan-2^2-one], the concentration for half-maximal inhibition (IC50) was above 10000 nM in series [2] (Homo sapiens, LS-513, 96 h); below 100 nM in series [3] (Homo sapiens, NCI-H358, 96 h); below 100 nM in series [4] (Homo sapiens, NCI-H358, 3 h).

For `C=CC(=O)N1C[C@H](C)N(c2nc(=O)n3c4nc(c(F)cc24)-c2c(F)cccc2NCCCc2ccnc(C(C)C)c2-3)C[C@H]1C` [Example 7A, 2^4-((2S,5R)-4-acryloyl-2,5-dimethylpiperazin-1-yl)-2^6,3^6-difluoro-1^2-isopropyl-2^1,2^2-dihydro-4-aza-2(1,7)-pyrido[2,3-d]pyrimidina-1(3,4)-pyridina-3(1,2)-benzenacycloheptaphan-2^2-one], the IC50 in series [2] (Homo sapiens, LS-513, 96 h) is above 10000 nM; in series [3] (Homo sapiens, NCI-H358, 96 h), 100 to 1000 nM; in series [4] (Homo sapiens, NCI-H358, 3 h) it was 100 to 1000 nM.

Take `C=CC(=O)N1C[C@H](C)N(c2nc(=O)n3c4nc(c(F)cc24)-c2c(F)cccc2NCCCc2ccnc(C(C)C)c2-3)C[C@H]1C` [Example 7B, 2^4-((2S,5R)-4-acryloyl-2,5-dimethylpiperazin-1-yl)-2^6,3^6-difluoro-1^2-isopropyl-2^1,2^2-dihydro-4-aza-2(1,7)-pyrido[2,3-d]pyrimidina-1(3,4)-pyridina-3(1,2)-benzenacycloheptaphan-2^2-one]: the values for the half-inhibitory concentration (IC50) in series [2], in series [3] and in series [4] were above 10000 nM, below 100 nM and below 100 nM, respectively.

Consider `C=CC(=O)N1CCN(c2nc(=O)n3c4nc(c(F)cc24)-c2c(F)cccc2NCCSc2ccnc(C(C)C)c2-3)[C@@H](C)C1` [Example 9, (S)-2^4-(4-acryloyl-2-methylpiperazin-1-yl)-2^6,3^6-difluoro-1^2-isopropyl-2^1,2^2-dihydro-7-thia-4-aza-2(1,7)-pyrido[2,3-d]pyrimidina-1(3,4)-pyridina-3(1,2)-benzenacycloheptaphan-2^2-one], for which the IC50 in series [2] (Homo sapiens, LS-513, 96 h) was above 10000 nM; in series [3] (Homo sapiens, NCI-H358, 96 h) it was below 100 nM; in series [4] (Homo sapiens, NCI-H358, 3 h) it was below 100 nM.

On to `C=CC(=O)N1CCN(c2nc(=O)n3c4nc(c(F)cc24)-c2c(Cl)cccc2NCCCc2ccnc(C(C)C)c2-3)[C@@H](C)C1` [Example 10, (S)-2^4-(4-acryloyl-2-methylpiperazin-1-yl)-3^6-chloro-2^6-fluoro-1^2-isopropyl-2^1,2^2-dihydro-4-aza-2(1,7)-pyrido[2,3-d]pyrimidina-1(3,4)-pyridina-3(1,2)-benzenacycloheptaphan-2^2-one], for which the IC50 is above 10000 nM in series [2] (Homo sapiens, LS-513, 96 h); below 100 nM in series [3] (Homo sapiens, NCI-H358, 96 h); below 100 nM in series [4] (Homo sapiens, NCI-H358, 3 h).

For `C=CC(=O)N1CCN(c2nc(=O)n3c4nc(c(F)cc24)-c2c(F)cccc2N(C(=O)C(C)(C)O)CCCc2ccnc(C(C)C)c2-3)[C@@H](C)C1` [Example 15, (S)-2^4-(4-acryloyl-2-methylpiperazin-1-yl)-2^6,3^6-difluoro-4-(2-hydroxy-2-methylpropanoyl)-1^2-isopropyl-2^1,2^2-dihydro-4-aza-2(1,7)-pyrido[2,3-d]pyrimidina-1(3,4)-pyridina-3(1,2)-benzenacycloheptaphan-2^2-one], the concentration for half-maximal inhibition (IC50) in series [2] (Homo sapiens, LS-513, 96 h) is above 10000 nM; in series [3] (Homo sapiens, NCI-H358, 96 h) it was 100 to 1000 nM; in series [4] (Homo sapiens, NCI-H358, 3 h), 100 to 1000 nM.

Turning to `C=CC(=O)N1CCN(c2nc(=O)n3c4nc(c(F)cc24)-c2c(F)cccc2NCCCc2cccc(C(C)C)c2-3)[C@@H](C)C1` [Example 17, (S)-2^4-(4-acryloyl-2-methylpiperazin-1-yl)-2^6,3^6-difluoro-1^6-isopropyl-2^1,2^2-dihydro-4-aza-2(1,7)-pyrido[2,3-d]pyrimidina-1,3(1,2)-dibenzenacycloheptaphan-2^2-one], the IC50 in series [2] (Homo sapiens, LS-513, 96 h) was 1000 to 10000 nM; in series [3] (Homo sapiens, NCI-H358, 96 h), below 100 nM; in series [4] (Homo sapiens, NCI-H358, 3 h), 100 to 1000 nM.

As to `C=CC(=O)N1CCN(c2nc(=O)n3c4nc(c(F)cc24)-c2c(F)cccc2N(C)CCCc2cccc(C(C)C)c2-3)[C@@H](C)C1` [Example 19, (S)-2^4-(4-acryloyl-2-methylpiperazin-1-yl)-2^6,3^6-difluoro-1^6-isopropyl-4-methyl-2^1,2^2-dihydro-4-aza-2(1,7)-pyrido[2,3-d]pyrimidina-1,3(1,2)-dibenzenacycloheptaphan-2^2-one], the IC50 in series [2] (Homo sapiens, LS-513, 96 h) was 1000 to 10000 nM; in series [3] (Homo sapiens, NCI-H358, 96 h), below 100 nM; in series [4] (Homo sapiens, NCI-H358, 3 h), below 100 nM.

For `C=CC(=O)N1C[C@H](C)N(c2nc(=O)n3c4nc(c(F)cc24)-c2c(F)cccc2NCCCc2cccc(C(C)C)c2-3)C[C@H]1C` [Example 20, 2^4-((2S,5R)-4-acryloyl-2,5-dimethylpiperazin-1-yl)-2^6,3^6-difluoro-1^6-isopropyl-2^1,2^2-dihydro-4-aza-2(1,7)-pyrido[2,3-d]pyrimidina-1,3(1,2)-dibenzenacycloheptaphan-2^2-one], the half-maximal inhibitory concentration (IC50) in series [2] (Homo sapiens, LS-513, 96 h) was above 10000 nM; in series [3] (Homo sapiens, NCI-H358, 96 h), below 100 nM; in series [4] (Homo sapiens, NCI-H358, 3 h), below 100 nM.

On to `C=CC(=O)N1CCN(c2nc(=O)n3c4nc(c(F)cc24)-c2c(F)cccc2NCCCNc2cccc(C(C)C)c2-3)[C@@H](C)C1` [Example 22, (S)-2^4-(4-acryloyl-2-methylpiperazin-1-yl)-2^6,3^6-difluoro-1^6-isopropyl-2^1,2^2-dihydro-4,8-diaza-2(1,7)-pyrido[2,3-d]pyrimidina-1,3(1,2)-dibenzenacyclooctaphan-2^2-one], for which the IC50 in series [2] (Homo sapiens, LS-513, 96 h) was 100 to 1000 nM; in series [3] (Homo sapiens, NCI-H358, 96 h) it was below 100 nM; in series [4] (Homo sapiens, NCI-H358, 3 h) it was 100 to 1000 nM.

As for `C=CC(=O)N1CCN(c2nc(=O)n3c4nc(c(F)cc24)-c2c(F)cccc2NCCCN(C)c2cccc(C(C)C)c2-3)[C@@H](C)C1` [Example 28, (S)-2^4-(4-acryloyl-2-methylpiperazin-1-yl)-2^6,3^6-difluoro-1^6-isopropyl-8-methyl-2^1,2^2-dihydro-4,8-diaza-2(1,7)-pyrido[2,3-d]pyrimidina-1,3(1,2)-dibenzenacyclooctaphan-2^2-one], the concentration for half-maximal inhibition (IC50) in series [2] (Homo sapiens, LS-513, 96 h) was above 10000 nM; in series [3] (Homo sapiens, NCI-H358, 96 h) it was below 100 nM; in series [4] (Homo sapiens, NCI-H358, 3 h) it was 100 to 1000 nM.

Turning to “(S)-2^4-(4-acryloyl-2-methylpiperazin-1-yl)-2^6,3^6-difluoro-1^2-isopropyl-2^1,2^2-dihydro-8-thia-4-aza-2(1,7)-pyrido[2,3-d]pyrimidina-1(3,4)-pyridina-3(1,2)-benzenacyclooctaphan-2^2-one [Example 8]”, the IC50 is above 10000 nM in series [2], below 100 nM in series [3] and below 100 nM in series [4].
